Experimental data reported in publication PMC4476799, “Englerin A Agonizes the TRPC4/C5 Cation Channels to Inhibit Tumor Cell Line Proliferation” (PLoS ONE, 2015).
Like-named read-outs stand apart in the source and are kept apart here.

Tested on: cancer cell lines from the cancer cell line encyclopedia (CCLE)
Assay: Cell line profiling (CLiP) proliferation experiment
Type: cell-based
Set-up: key to Compound Activity (1-inactive;2-active): 1-inactive; 2-active; ACTIVITY_AREA: scale not given here; AMAX: unit not given here
Settings: for IC50: read-out: Crossing Point; for EC50: read-out: Inflection Point
Protocol: Compound profiling experiment and data analysis was performed as previously described. Data was imported and plotted using the Tibco Spotfire DXP application. Lines were categorized as sensitive, intermediate and refractory as follows: Amax<-40 & Inflection Point <2 ~ Sensitive, Amax>-20 & Inflection Point >10 ~ Refractory, all else were called Intermediate. Cancer Cell line HG-U133 Plus 2 data was processed and normalized as described. […] Five sets of refractory cell lines were generated from the pool of refractory cell lines trying to match the lineage composition of the set of sensitive cell lines. The limma package was used as previously described to perform the statistical comparison.

[1] = cell line GA-10, haematopoietic_and_lymphoid_tissue
[2] = cell line GAMG, central_nervous_system
[3] = cell line GI-1 (central_nervous_system, gliosarcoma)
[4] = cell line GI-1, central_nervous_system
[5] = cell line GMS-10, central_nervous_system
[6] = cell line GOS-3 (central_nervous_system, astrocytoma)
[7] = cell line GOS-3, central_nervous_system
[8] = cell line GP2d, large_intestine
[9] = cell line GRANTA-519, haematopoietic_and_lymphoid_tissue
[10] = cell line H4, central_nervous_system
[11] = cell line HARA (lung, squamous_cell_carcinoma)
[12] = cell line HH, haematopoietic_and_lymphoid_tissue
[13] = cell line Hs 611.T, haematopoietic_and_lymphoid_tissue
[14] = cell line MCAS (ovary, mucinous_carcinoma)
[15] = cell line MOG-G-UVW (central_nervous_system)
[16] = cell line NB-1 (autonomic_ganglia)
[17] = cell line NB-4 (haematopoietic_and_lymphoid_tissue)
[18] = cell line SNU-119, ovary, adenocarcinoma
[19] = cell line SNU-626 (central_nervous_system, astrocytoma_Grade_IV)
[20] = cell line SNU-1079, biliary_tract

CC(C)[C@@]12C[C@@H](O)[C@@](C)(O1)[C@@H]1CC[C@@H](C)[C@H]1[C@@H]2OC(=O)/C=C/c1ccccc1 [Englerin B]
ACTIVITY_AREA [1]: 28.18 | AMAX [1]: 8.5 | RESPONSE [1]: REFRACTORY | ACTIVITY_AREA [2]: 50.48 | AMAX [2]: -45.21 | RESPONSE [2]: INTERMEDIATE | ACTIVITY_AREA (cell line GCIY, stomach): 49.94 | AMAX (cell line GCIY, stomach): -70.92 | RESPONSE (cell line GCIY, stomach): INTERMEDIATE | Compound Activity (1-inactive;2-active) (cell line GCT (soft_tissue, NS)): 1 | ACTIVITY_AREA (cell line GCT, soft_tissue): 17.95 | AMAX (cell line GCT, soft_tissue): -52.9 | RESPONSE (cell line GCT, soft_tissue): INTERMEDIATE | IC50 (cell line GCT, soft_tissue): 27.1 µM | EC50 (cell line GCT, soft_tissue): 16.4 µM | Compound Activity (1-inactive;2-active) [3]: 1 | IC50 [3]: > 30 µM | ACTIVITY_AREA [4]: 112.12 | AMAX [4]: -25.87 | RESPONSE [4]: INTERMEDIATE | IC50 [4]: > 30 µM | ACTIVITY_AREA [5]: 21.47 | AMAX [5]: -32.03 | RESPONSE [5]: INTERMEDIATE | Compound Activity (1-inactive;2-active) [6]: 1 | IC50 [6]: > 30 µM | ACTIVITY_AREA [7]: 26.28 | AMAX [7]: -31.04 | RESPONSE [7]: INTERMEDIATE | IC50 [7]: > 30 µM | ACTIVITY_AREA [8]: 32.63 | AMAX [8]: -48.04 | RESPONSE [8]: INTERMEDIATE | ACTIVITY_AREA (cell line GR-M, skin): 48.68 | AMAX (cell line GR-M, skin): -36.64 | RESPONSE (cell line GR-M, skin): INTERMEDIATE | IC50 (cell line GR-M, skin): > 30 µM | IC50 (cell line GR-M): > 30 µM | ACTIVITY_AREA [9]: 14.82 | AMAX [9]: 16.83 | RESPONSE [9]: REFRACTORY | ACTIVITY_AREA [10]: 16.33 | AMAX [10]: -3.42 | RESPONSE [10]: REFRACTORY | IC50 [10]: > 30 µM | IC50 (cell line H4): > 30 µM | Compound Activity (1-inactive;2-active) [11]: 1 | IC50 [11]: 15.9 µM | ACTIVITY_AREA (cell line HARA, lung): 73.57 | AMAX (cell line HARA, lung): -72.32 | RESPONSE (cell line HARA, lung): INTERMEDIATE | IC50 (cell line HARA, lung): 15.9 µM | Compound Activity (1-inactive;2-active) (cell line HCC-15 (lung, squamous_cell_carcinoma)): 1 | ACTIVITY_AREA (cell line HCC-15, lung): 57.49 | AMAX (cell line HCC-15, lung): -70.57 | RESPONSE (cell line HCC-15, lung): INTERMEDIATE | Compound Activity (1-inactive;2-active) (cell line HCC-44 (lung, adenocarcinoma)): 1 | RESPONSE (cell line HCC-44, lung): INTERMEDIATE | RESPONSE (cell line HCC-366, lung): REFRACTORY | Compound Activity (1-inactive;2-active) (cell line HCC-1171 (lung, non_small_cell_carcinoma)): 1 | ACTIVITY_AREA (cell line HCC-1171, lung): 53.16 | AMAX (cell line HCC-1171, lung): -52.03 | RESPONSE (cell line HCC-1171, lung): INTERMEDIATE | IC50 (cell line HEC-59, endometrium): 19.1 µM | IC50 (cell line HEC-151, endometrium): 16.5 µM | IC50 (cell line HEC-265, endometrium): 27.1 µM | EC50 (cell line HEC-265, endometrium): 27.1 µM | Compound Activity (1-inactive;2-active) (cell line HEL 92.1.7 (haematopoietic_and_lymphoid_tissue, acute_myeloid_leukaemia)): 1 | IC50 [12]: 10.1 µM | EC50 [12]: 9.47 µM | IC50 (cell line HLC-1, lung): > 30 µM | IC50 (cell line HLC-1): > 30 µM | IC50 (cell line HLF, liver): > 30 µM | EC50 (cell line HLF, liver): 16.8 µM | IC50 (cell line HLF): > 30 µM | IC50 (cell line HMC-1-8, breast): 29.7 µM | Compound Activity (1-inactive;2-active) (cell line HPB-ALL (haematopoietic_and_lymphoid_tissue, acute_lymphoblastic_T_cell_leukaemia)): 1 | IC50 (cell line HT, haematopoietic_and_lymphoid_tissue): > 30 µM | IC50 (cell line HT): > 30 µM | IC50 (cell line HTK-, haematopoietic_and_lymphoid_tissue): 28.6 µM | IC50 (cell line Hs 571.T, ovary): 19.6 µM | EC50 (cell line Hs 571.T, ovary): 19.6 µM | IC50 [13]: 20.9 µM | EC50 [13]: 20.9 µM | IC50 (cell line Hs 729, soft_tissue): > 30 µM | IC50 (cell line Hs 729): > 30 µM | IC50 (cell line Hs 936.T, skin): > 30 µM | EC50 (cell line Hs 936.T, skin): 7.96 µM | IC50 (cell line Hs 936.T): > 30 µM | IC50 (cell line Hs 939.T, skin): > 30 µM | IC50 (cell line Hs 939.T): > 30 µM | IC50 (cell line Hs 940.T, skin): > 30 µM | IC50 (cell line Hs 944.T, skin): 20.6 µM | EC50 (cell line Hs 944.T, skin): 17.1 µM | IC50 (cell line HuG1-N, stomach): 10.9 µM | IC50 (cell line J82): > 30 µM | IC50 (cell line KLE): > 30 µM | Compound Activity (1-inactive;2-active) (cell line Loucy (haematopoietic_and_lymphoid_tissue, acute_lymphoblastic_T_cell_leukaemia)): 1 | Compound Activity (1-inactive;2-active) (cell line MC116 (haematopoietic_and_lymphoid_tissue, B_cell_lymphoma_unspecified)): 1 | Compound Activity (1-inactive;2-active) [14]: 1 | IC50 [14]: > 30 µM | Compound Activity (1-inactive;2-active) (cell line MDA-MB-231 (breast, NS)): 1 | Compound Activity (1-inactive;2-active) (cell line MDA-MB-453 (breast, NS)): 1 | Compound Activity (1-inactive;2-active) (cell line MEC-1 (haematopoietic_and_lymphoid_tissue, chronic_lymphocytic_leukaemia-small_lymphocytic_lymphoma)): 1 | IC50 (cell line MEL-HO (skin)): > 30 µM | IC50 (cell line MEL-HO): > 30 µM | IC50 (cell line MHH-NB-11 (autonomic_ganglia)): 26.9 µM | IC50 (cell line MJ (haematopoietic_and_lymphoid_tissue)): 9.13 µM | IC50 [15]: > 30 µM | EC50 [15]: 10.2 µM | IC50 (cell line MOG-G-UVW): > 30 µM | Compound Activity (1-inactive;2-active) (cell line MOLT-16 (haematopoietic_and_lymphoid_tissue, acute_lymphoblastic_T_cell_leukaemia)): 1 | Compound Activity (1-inactive;2-active) (cell line MONO-MAC-6 (haematopoietic_and_lymphoid_tissue, acute_myeloid_leukaemia)): 1 | IC50 (cell line MOR/CPR (lung)): 28.3 µM | EC50 (cell line MOR/CPR (lung)): 12.9 µM | EC50 (cell line MOR/CPR): 12.9 µM | Compound Activity (1-inactive;2-active) (cell line MeWo (skin, NS)): 1 | IC50 (cell line Mel285 (eye)): > 30 µM | EC50 (cell line Mel285 (eye)): 13.8 µM | IC50 (cell line Mel285): > 30 µM | IC50 [16]: 22.3 µM | EC50 [16]: 22.3 µM | IC50 [17]: 18.5 µM | EC50 [17]: 11.5 µM | Compound Activity (1-inactive;2-active) (cell line NCI-H1048 (lung, small_cell_carcinoma)): 1 | Compound Activity (1-inactive;2-active) (cell line NCI-H1299 (lung, non_small_cell_carcinoma)): 1 | IC50 (cell line NCI-H1341 (lung)): 15 µM | EC50 (cell line NCI-H1341 (lung)): 15 µM | Compound Activity (1-inactive;2-active) (cell line NCI-H1355 (lung, adenocarcinoma)): 1 | Compound Activity (1-inactive;2-active) (cell line NCI-H1792 (lung, adenocarcinoma)): 1 | Compound Activity (1-inactive;2-active) (cell line NCI-H2073 (lung, adenocarcinoma)): 1 | IC50 (cell line NCI-H2106): > 30 µM | IC50 (cell line NCI-H2330): > 30 µM | IC50 (cell line OC 316): > 30 µM | IC50 (cell line OMM2.3): > 30 µM | EC50 (cell line OMM2.3): 13.6 µM | IC50 (cell line OMM2.5): > 30 µM | IC50 (cell line OV7): > 30 µM | IC50 (cell line OVISE): 17.9 µM | IC50 (cell line PC-3): 25.9 µM | IC50 (cell line PE/CA-PJ41 (clone D2)): 25.8 µM | IC50 (cell line PEER): 13.5 µM | IC50 (cell line RCC10RGB): > 30 µM | IC50 (cell line RCH-ACV): 15.6 µM | EC50 (cell line RCH-ACV): 12.1 µM | IC50 (cell line RD): > 30 µM | IC50 (cell line RERF-LC-AI): > 30 µM | EC50 (cell line RERF-LC-AI): 17.9 µM | IC50 (cell line RI-1): 9.99 µM | EC50 (cell line RI-1): 9.99 µM | IC50 (cell line RKN): > 30 µM | IC50 (cell line RKO): 14.7 µM | EC50 (cell line RKO): 13.1 µM | IC50 (cell line RL): 12.5 µM | EC50 (cell line RL): 11.8 µM | IC50 (cell line RMUG-S): > 30 µM | IC50 (cell line Reh): 21.5 µM | EC50 (cell line Reh): 21.5 µM | IC50 (cell line SEM, haematopoietic_and_lymphoid_tissue, acute_lymphoblastic_B_cell_leukaemia): 14.2 µM | Compound Activity (1-inactive;2-active) (cell line SF-295 (central_nervous_system, astrocytoma_Grade_IV)): 1 | IC50 (cell line SH-4, skin): > 30 µM | Compound Activity (1-inactive;2-active) (cell line SK-N-SH (autonomic_ganglia, NS)): 1 | IC50 (cell line SNG-M, endometrium, adenocarcinoma): > 30 µM | IC50 [18]: > 30 µM | EC50 [18]: 27.2 µM | Compound Activity (1-inactive;2-active) (cell line SNU-475 (liver, hepatocellular_carcinoma)): 1 | Compound Activity (1-inactive;2-active) [19]: 1 | IC50 [19]: > 30 µM | IC50 (cell line SNU-626, central_nervous_system, astrocytoma_Grade_IV): > 30 µM | IC50 (cell line SNU-738, central_nervous_system, oligodendroglioma): > 30 µM | IC50 [20]: 25.7 µM | EC50 [20]: 25.7 µM | Compound Activity (1-inactive;2-active) (cell line SW48 (large_intestine, adenocarcinoma)): 1 | Compound Activity (1-inactive;2-active) (cell line SW 1783 (central_nervous_system, astrocytoma_Grade_III)): 1 | Compound Activity (1-inactive;2-active) (cell line THP-1 (haematopoietic_and_lymphoid_tissue, acute_myeloid_leukaemia)): 1 | Compound Activity (1-inactive;2-active) (compound-level call): 1 | Compound Activity (1-inactive;2-active) (compound-level call printed on every cell line row): 1 | Compound Activity (1-inactive;2-active) (compound-level call, the same on every cell line's row): 1 | Compound Activity (1-inactive;2-active) (compound-level flag): 1 | Compound Activity (1-inactive;2-active) (compound-level flag repeated on every cell line row): 1 | Compound Activity (1-inactive;2-active) (compound-level flag, printed on every cell line row): 1 | Compound Activity (1-inactive;2-active) (flag of the compound): 1 | Compound Activity (1-inactive;2-active) (overall call per compound): 1 | Compound Activity (1-inactive;2-active) (overall class of the compound): 1 | Compound Activity (1-inactive;2-active) (printed on every cell line row, same value for the compound throughout): 1
